Tested on: wheat
Test: Improvement of plant height in wheat (greenhouse pot trial, Use Example H-2)
Assay type: in vivo
Conditions: wheat cv. J B Asano, 14 days at 20° C., % compared to untreated control (100 = 13.9 cm), pyraclostrobin 5 g ai/100 kg seeds as seed treatment, B. simplex broth 10 ml per seed as drench
Protocol: Pyraclostrobin was applied as commercial seed treatment formulation STAMINA (200 g/L a.i., BASF SE, Ludwigshafen, Germany).
In pot trials in Limburgerhof greenhouses, Bacillus simplex ABU 288 was tested in wheat and maize as solo products and in combination with pyraclostrobin to show effects on plant height. The application of the pyraclostrobin was done as seed treatment and the seeds were treated in the BASF Seed Solutions Technology Center (SSTC) Limburgerhof using a batch lab treater. The respective amounts of seeds was placed in the bowl of the treater and the slurry was dosed on the spinning disk.
The bacterials were grown in shake flasks and used as fermentation broth with a CFU of at least 1×10^12 per ml. This broth was added as a drench solution directly adjacent to the seeds with 10 ml for each seed kernel which makes 50 ml per pot.
The trial was sown in 8 cm pots and a mix of peat substrate and sand (ratio 1:4) was used as a substrate. […]
For the assessment, the plant height from all plants was measured in cm. […]
The expected relative plant height of active compound combinations were determined using Colby's formula (Colby, S. R. “Calculating synergistic and antagonistic responses of herbicide combinations”, Weeds 15, pp. 20-22, 1967) and compared with the observed efficacies. […]

pyraclostrobin
Observed relative plant height: 99.4%

Source: patent US20150313241A1, “Pesticidal Mixtures” (BASF Corporation, priority 2012, published 2015)
